Results reported in patent US20070197432A1, “Peptides for preventing, diagnosing and treating animal and/or human leptospirosis” (priority 2002, published 2007).
No end group written: not given here.

Legend:
[1] = test system: Leptospira interrogans sl serovar canicola; assay: Trial 2: gerbils immunized with PP-KLH or PP, 10^−2 canicola challenge; assay type: in vivo, gerbil; parameters: Mortality rate / Survival rate: unit not given here
Procedure: An immunization/challenge trial was carried out in order to evaluate the protection that can be provided by the PP peptide (SEQ ID No. 1) coupled or not coupled to the KLH protein.
This construct is administered subcutaneously without adjuvant, and PBS is administered by the same route as the negative control (batch 3). • Batch 1: 12 gerbils, 2 injections of 30 μg of PP-KLH in 300 μl. • Batch 2: 12 gerbils, 2 injections of 30 μg of PP in 300 μl. • Batch 3: 15 gerbils, 2 injections of PBS in 300 A1.
The two injections in a volume of 300 μl were administered subcutaneously, two weeks apart. A challenge by intraperitoneal injection of 0.5 ml of a serovar canicola leptospiral culture with a titer of 90 to 100 TU (turbidimetry) diluted to 10^−2 was administered three weeks after the second injection.

[2] = test system: PP peptide; assay: Immunization of rabbit with noncoupled PP peptide, anti-PP IgG ELISA; assay type: in vivo
Procedure: To test the immunogenicity of the PP peptide alone, immunization with the PP peptide in the rabbit model was carried out, with incomplete Freund's adjuvant being added to each injection.
More precisely, two injections of 400 μg of PP peptide with incomplete Freund's adjuvant (v/v) were administered in a total volume of 2 ml.
The two injections were administered subcutaneously, two weeks apart. The rabbit serum was recovered two weeks after the second injection. The anti-PP antibodies were titered on this serum.
The anti-PP antibodies were titered in the rabbit by the ELISA technique described above, with a biotinylated anti-rabbit antiglobulin (BioAtlantic) at 1/3000 and peroxidase-coupled streptavidin as visualizing agent (RPN1231, Amersham pharmacia biotech)
The results of the anti-PP IgG antibody response, expressed as corrected OD (OD at D28, therefore after the second immunization, minus the OD at D0), of the immunization trial with the PP peptide are given in FIG. 3.

[3] = test system: Leptospira interrogans sl serovar canicola; assay: Trial 1: gerbils immunized with PP-KLH, 10^−2.5 canicola challenge; assay type: in vivo, gerbil; details: Experiment 1, survival
Procedure: An immunization/challenge protocol was carried out in order to evaluate the protection that can be provided by the PP peptide (SEQ ID No. 1) coupled to the KLH protein.
This construct is administered subcutaneously without adjuvant, with PBS as a negative control (batch 2).
Batch 1: 10 gerbils, 2 injections of 30 μg of PP-KLH in 300 μl, subcutaneously.
Batch 2: 10 gerbils, 2 injections of PBS in 300 μl.
The two injections in a volume of 300 μl were administered subcutaneously, two weeks apart. A challenge by intraperitoneal injection of 0.5 ml of a canicola culture with a titer of 90 to 100 TU (turbidimetry) diluted to 10^−2.5 was administered two weeks after the second injection. • Antigenic response: Monitoring by ELISA of the immune response of the gerbils against the PP peptide

For “KAKPVQKLDDDDDGDDTYKEERHNK [PP peptide, 25 amino acid peptide, fragment aa153-aa177 of the PPL protein of Leptospira interrogans]”, the Mortality rate ([1]; 10^−2 canicola challenge) was 33.3, the Survival rate ([1]; 10^−2 canicola challenge) was 66.7 and the “mortality in the group (dead/number)” value ([1]; 10^−2 canicola challenge) was 4/12. The gerbils at challenge ([1]; 10^−2 canicola challenge, D0) was 12, the “mortality of gerbils (dead/number)” value ([1]; 10^−2 canicola challenge, D4) was 0/12 and the “mortality of gerbils (dead/number)” value ([1]; 10^−2 canicola challenge, D5) was 0/12. The “mortality of gerbils (dead/number)” value ([1]; 10^−2 canicola challenge, D6) was 0/12, the “mortality of gerbils (dead/number)” value ([1]; 10^−2 canicola challenge, D7) was 0/12 and the “mortality of gerbils (dead/number)” value ([1]; 10^−2 canicola challenge, D8) was 2/12. The “mortality of gerbils (dead/number)” value ([1]; 10^−2 canicola challenge, D9) was 2/10, the “mortality of gerbils (dead/number)” value ([1]; 10^−2 canicola challenge, D10) was 0/8 and the “mortality of gerbils (dead/number)” value ([1]; 10^−2 canicola challenge, D11) was 0/8. For the same sequence, the “mortality of gerbils (dead/number)” value ([1]; 10^−2 canicola challenge, D12) was 0/8, the “mortality of gerbils (dead/number)” value ([1]; 10^−2 canicola challenge, D13) was 0/8 and the “mortality of gerbils (dead/number)” value ([1]; 10^−2 canicola challenge, D14) was 0/8. The “mortality of gerbils (dead/number)” value ([1]; 10^−2 canicola challenge, D15) was 0/8, the “mortality of gerbils (dead/number)” value ([1]; 10^−2 canicola challenge, D16) was 0/8 and the “mortality of gerbils (dead/number)” value ([1]; 10^−2 canicola challenge, D17) was 0/8. For the same sequence, the “mortality of gerbils (dead/number)” value ([1]; 10^−2 canicola challenge, D28) was 0/8, the “p, log-rank test versus control” value ([1]; Experiment 2, survival) was under 0.02 and the “χ^2, log-rank test versus control” value ([1]; Experiment 2, survival) was 5.64. For the same sequence, the “p, log-rank test versus control” value ([1]; Experiment 2, survival, listed as PP) was <2.10^−2, the “serum dilution at which response against the PP peptide can still be detected” value ([2]; 2 s.c. injections of 400 μg with incomplete Freund's adjuvant, D28) was ≥ 102 400 and the immunogenicity ([2]; peptide alone) was “very immunogenic”. The “p, log-rank test versus control” value [3] was under 0.07.
